Earlier results as cited in patent US20050143363A1, “Method for subretinal administration of therapeutics including steroids; method for localizing pharmacodynamic action at the choroid of the retina; and related methods for treatment and/or prevention of retinal diseases” (InnoRx, Inc., priority 2002, published 2005).

Conditions: 72 hours after injection into the vitreous; animal studies

share of the triamcinolone present in the vitreous that was associated with other tissues including the retina, pigment epithelium, and sclera: less than 1%
SMILES: C[C@]12C=CC(=O)C=C1CC[C@H]1[C@@H]3C[C@@H](O)[C@](O)(C(=O)CO)[C@@]3(C)C[C@H](O)[C@@]12F [triamcinolone]
